This is an account of results in patent publication US6146853A, “Cyclic depsipeptide PF 1022G” (Meiji Seika Kaisha Ltd., priority 1996, dated 2000).

Data set [1] in a line: Solubilities (physico-chemical properties). In kind it is physicochemical.
A short description of data set [2]: Anthelmintic activities (general statement). The settings on record: no parasite or test named.

Take `CC(C)C[C@H]1C(=O)O[C@H](C)C(=O)N(C)[C@@H](CC(C)C)C(=O)O[C@H](C)C(=O)N(C)[C@@H](CC(C)C)C(=O)O[C@H](C)C(=O)N(C)[C@@H](CC(C)C)C(=O)O[C@H](C)C(=O)N1C` [PF 1022F substance]: the “Solubilities: soluble in” value in data set [1] (chloroform, acetone, ethyl acetate, methanol and dimethylsulfoxide) is given as “Soluble”. The “Solubilities: insoluble in” value in data set [1] (water and n-hexane) is “Insoluble”. In addition, in data set [1] (water, statement in the recovery description), the solubility in water entry is given as “insoluble in water”. In addition, the anthelmintic activities result in data set [2] is on record as “having anthelmintic activities”.
